Test results as given in ChEMBL document CHEMBL3611985, “Synthesis and structure-activity relationships of novel 9-oxime acylides with improved bactericidal activity” (2015).
Converted amounts (≈) assume the structure as drawn.

Tests used:
Type in all cases: functional
Streptococcus pneumoniae [1] = assay: Antimicrobial activity against erythromycin-susceptible Streptococcus pneumoniae ATCC 49619 incubated for 20 to 24 hrs by two-fold microbroth dilution method
Streptococcus pneumoniae [2] = assay: Antimicrobial activity against penicillin-susceptible Streptococcus pneumoniae PU09 incubated for 20 to 24 hrs by two-fold microbroth dilution method
Streptococcus pyogenes [3] = assay: Antimicrobial activity against Streptococcus pyogenes 01-968 expressing inducible ermA incubated for 20 to 24 hrs by two-fold microbroth dilution method
Staphylococcus aureus [4] = assay: Antimicrobial activity against methicillin-resistant Staphylococcus aureus PU32 expressing inducible ermA incubated for 20 hrs by two-fold microbroth dilution method; details: PU32, 20 h
Staphylococcus aureus [5] = assay: Antimicrobial activity against methicillin-resistant Staphylococcus aureus PU20 expressing constitutive ermC incubated for 20 hrs by two-fold microbroth dilution method; details: PU20, 20 h
Haemophilus influenzae [6] = assay: Antimicrobial activity against azithromycin-susceptible and ampicillin-resistant Haemophilus influenzae 11P037 incubated for 20 to 24 hrs by two-fold microbroth dilution method
Streptococcus pyogenes [7] = assay: Antimicrobial activity against Streptococcus pyogenes 12-207 expressing mef incubated for 20 to 24 hrs by two-fold microbroth dilution method
Moraxella catarrhalis [8] = assay: Antimicrobial activity against erythromycin-susceptible Moraxella catarrhalis 11B366 incubated for 20 hrs by two-fold microbroth dilution method; details: 11B366, 20 h
Streptococcus pneumoniae [9] = assay: Bactericidal activity against erythromycin-susceptible Streptococcus pneumoniae ATCC 49619 incubated for 20 to 24 hrs followed by sub-culturing for 24 hrs in absence of compound
Streptococcus pneumoniae [10] = assay: Bactericidal activity against penicillin-susceptible Streptococcus pneumoniae PU09 incubated for 20 to 24 hrs followed by sub-culturing for 24 hrs in absence of compound
Streptococcus pyogenes [11] = assay: Bactericidal activity against Streptococcus pyogenes 01-968 expressing inducible ermA incubated for 20 to 24 hrs followed by sub-culturing for 24 hrs in absence of compound
Streptococcus pyogenes [12] = assay: Bactericidal activity against Streptococcus pyogenes 12-207 expressing mef incubated for 20 to 24 hrs followed by sub-culturing for 24 hrs in absence of compound
Haemophilus influenzae [13] = assay: Bactericidal activity against azithromycin-susceptible and ampicillin-resistant Haemophilus influenzae 11P037 incubated for 20 to 24 hrs followed by sub-culturing for 24 hrs in absence of compound
Staphylococcus aureus [14] = assay: Bactericidal activity against methicillin-resistant Staphylococcus aureus PU32 expressing inducible ermA incubated for 20 hrs followed by sub-culturing for 24 hrs in absence of compound
Staphylococcus aureus [15] = assay: Bactericidal activity against methicillin-resistant Staphylococcus aureus PU20 expressing constitutive ermC incubated for 20 hrs followed by sub-culturing for 24 hrs in absence of compound
Moraxella catarrhalis [16] = assay: Bactericidal activity against erythromycin-susceptible Moraxella catarrhalis 11B366 incubated for 20 hrs followed by sub-culturing for 24 hrs in absence of compound
Streptococcus pneumoniae [17] = assay: Ratio of MBC to MIC against erythromycin-susceptible Streptococcus pneumoniae ATCC 49619
Streptococcus pneumoniae [18] = assay: Ratio of MBC to MIC against penicillin-susceptible Streptococcus pneumoniae PU09
Streptococcus pyogenes [19] = assay: Ratio of MBC to MIC against Streptococcus pyogenes 01-968 expressing inducible ermA
Streptococcus pyogenes [20] = assay: Ratio of MBC to MIC against Streptococcus pyogenes 12-207 expressing mef
Haemophilus influenzae [21] = assay: Ratio of MBC to MIC against azithromycin-susceptible and ampicillin-resistant Haemophilus influenzae 11P037
Staphylococcus aureus [22] = assay: Ratio of MBC to MIC against methicillin-resistant Staphylococcus aureus PU32 expressing inducible ermA
Staphylococcus aureus [23] = assay: Ratio of MBC to MIC against methicillin-resistant Staphylococcus aureus PU20 expressing constitutive ermC
Moraxella catarrhalis [24] = assay: Ratio of MBC to MIC against erythromycin-susceptible Moraxella catarrhalis 11B366

Structure (SMILES) | MIC (Streptococcus pneumoniae [1]) | MIC (Streptococcus pneumoniae [2]) | MIC (Streptococcus pyogenes [3]) | MIC (Staphylococcus aureus [4]) | MIC (Staphylococcus aureus [5]) | MIC (Haemophilus influenzae [6]) | MIC (Streptococcus pyogenes [7]) | MIC (Moraxella catarrhalis [8]) | MBC (Streptococcus pneumoniae [9]) | MBC (Streptococcus pneumoniae [10]) | MBC (Streptococcus pyogenes [11]) | MBC (Streptococcus pyogenes [12]) | MBC (Haemophilus influenzae [13]) | MBC (Staphylococcus aureus [14]) | MBC (Staphylococcus aureus [15]) | MBC (Moraxella catarrhalis [16]) | Ratio (Streptococcus pneumoniae [17]) | Ratio (Streptococcus pneumoniae [18]) | Ratio (Streptococcus pyogenes [19]) | Ratio (Streptococcus pyogenes [20]) | other results
CC[C@H]1OC(=O)[C@H](C)[C@@H](OC(=O)Cc2ccccn2)[C@H](C)[C@@H](O[C@@H]2O[C@H](C)C[C@H](N(C)C)[C@H]2O)[C@](C)(OC)C[C@@H](C)/C(=N\OCC#Cc2cncc(N)c2)[C@H](C)[C@H]2OC(=O)O[C@@]21C | ≤ 0.008 µg/mL | 0.5 µg/mL (≈ 0.568 µM) | 0.125 µg/mL (≈ 0.142 µM) | 0.5 µg/mL (≈ 0.568 µM) | 128 µg/mL (≈ 145 µM) | 8 µg/mL (≈ 9.09 µM) | 0.125 µg/mL (≈ 0.142 µM) | 1 µg/mL (≈ 1.14 µM) | 0.008 µg/mL (≈ 0.00909 µM) | 1 µg/mL (≈ 1.14 µM) | 0.5 µg/mL (≈ 0.568 µM) | > 1 µg/mL | > 64 µg/mL | > 4 µg/mL | 256 µg/mL (≈ 291 µM) | 2 µg/mL (≈ 2.27 µM) | >=1 | 2 | 4 | >8 | Ratio (Haemophilus influenzae [21]): >8; Ratio (Staphylococcus aureus [22]): >8; Ratio (Staphylococcus aureus [23]): 2; Ratio (Moraxella catarrhalis [24]): 2
CC[C@H]1OC(=O)[C@H](C)[C@@H](OC(=O)Cc2ccccn2)[C@H](C)[C@@H](O[C@@H]2O[C@H](C)C[C@H](N(C)C)[C@H]2O)[C@](C)(OC)C[C@@H](C)/C(=N\OCC#Cc2cncc(C(N)=O)c2)[C@H](C)[C@H]2OC(=O)O[C@@]21C | 0.016 µg/mL (≈ 0.0176 µM) | 0.5 µg/mL (≈ 0.551 µM) | 0.031 µg/mL (≈ 0.0341 µM) | 0.5 µg/mL (≈ 0.551 µM) | 256 µg/mL (≈ 282 µM) | 8 µg/mL (≈ 8.81 µM) | 0.016 µg/mL (≈ 0.0176 µM) | 1 µg/mL (≈ 1.1 µM) | 0.016 µg/mL (≈ 0.0176 µM) | 1 µg/mL (≈ 1.1 µM) | 0.062 µg/mL (≈ 0.0683 µM) | > 0.125 µg/mL | 64 µg/mL (≈ 70.5 µM) | > 4 µg/mL | > 256 µg/mL | 2 µg/mL (≈ 2.2 µM) | 1 | 2 | 2 | >8 | Ratio (Haemophilus influenzae [21]): 8; Ratio (Staphylococcus aureus [22]): >8; Ratio (Staphylococcus aureus [23]): >2; Ratio (Moraxella catarrhalis [24]): 2
CC[C@H]1OC(=O)[C@H](C)[C@@H](OC(=O)Cc2ccccn2)[C@H](C)[C@@H](O[C@@H]2O[C@H](C)C[C@H](N(C)C)[C@H]2O)[C@](C)(OC)C[C@@H](C)/C(=N\OCC#Cc2cccnc2)[C@H](C)[C@H]2OC(=O)O[C@@]21C | ≤ 0.008 µg/mL | 0.5 µg/mL (≈ 0.578 µM) | 0.25 µg/mL (≈ 0.289 µM) | 1 µg/mL (≈ 1.16 µM) | 128 µg/mL (≈ 148 µM) | 8 µg/mL (≈ 9.25 µM) | 0.125 µg/mL (≈ 0.145 µM) | 2 µg/mL (≈ 2.31 µM) | 0.008 µg/mL (≈ 0.00925 µM) | 1 µg/mL (≈ 1.16 µM) | 0.25 µg/mL (≈ 0.289 µM) | > 1 µg/mL | > 64 µg/mL | > 8 µg/mL | 128 µg/mL (≈ 148 µM) | 4 µg/mL (≈ 4.62 µM) | >=1 | 2 | 1 | >8 | Ratio (Haemophilus influenzae [21]): >8; Ratio (Staphylococcus aureus [22]): >8; Ratio (Staphylococcus aureus [23]): 1; Ratio (Moraxella catarrhalis [24]): 2
